From ChEMBL document CHEMBL6103592, “Discovery of novel thiazole-pleuromutilin derivatives with potent antibacterial activity” (Eur J Med Chem, 2025)
Converted amounts (≈) assume the structure as drawn. The source made the active and inactive calls. The rule behind the calls is not given here.

Tests used:
Staphylococcus aureus [1] = assay: Bactericidal activity against methicillin-resistant Staphylococcus aureus ATCC 43300 assessed as increase in colony forming unit count at 1 times MIC incubated after 8 hrs by time-kill assay; type: functional, organism-based
Staphylococcus aureus [2] = assay: Antibacterial activity against methicillin-resistant Staphylococcus aureus ATCC 43300 assessed as reduction in bacterial proteins level at 0.5 to 2 microg/ml measured for 4 hrs; type: functional, organism-based; conditions: dose 0.5-2 µg/ml
Staphylococcus aureus [3] = assay: Antibacterial activity against methicillin-resistant Staphylococcus aureus ATCC 43300 assessed as post antibiotic effect at 2 times MIC measured after 1 hr; type: functional
Enterococcus faecalis = assay: Antibacterial activity against Enterococcus faecalis assessed as inhibition of visible bacterial growth incubated for 24 hrs by CLSI based broth microdilution method; type: functional
Staphylococcus aureus [4] = assay: Drug resistance, ratio of MIC for methicillin-resistant Staphylococcus aureus ATCC 43300 after 21 passages to MIC for methicillin-resistant Staphylococcus aureus ATCC 43300 during first exposure; type: functional
Staphylococcus aureus [5] = assay: Antibacterial activity against methicillin-resistant Staphylococcus aureus ATCC 43300 assessed as inhibition of visible bacterial growth incubated for 24 hrs by CLSI based broth microdilution method; type: functional
Staphylococcus aureus [6] = assay: (§1) Antibacterial efficacy against methicillin-resistant Staphylococcus aureus ATCC 43300 infected in cyclophosphamide-induced neutropenic systemic infection Kunming mouse model assessed as reduction in bacterial load in kidney at 20 mg/kg, iv pretreated with cyclophosphamide for 1 hr followed by compound addition and measured after 5 days; type: functional, organism-based; conditions: time 5.0 day
Staphylococcus aureus [7] = assay: Antibacterial activity against Staphylococcus aureus ATCC 25923 assessed as inhibition of visible bacterial growth incubated for 24 hrs by CLSI based broth microdilution method; type: functional
Staphylococcus aureus [8] = assay: Bactericidal activity against methicillin-resistant Staphylococcus aureus ATCC 43300 at 1 times MIC incubated upto 24 hrs by time-kill assay; type: functional, organism-based
Staphylococcus aureus [9] = assay: as §1, with “alveolar epithelial cell necrosis” for “reduction in bacterial load in kidney”, “days by light microscopic analysis” for “days”; type: functional, organism-based; conditions: time 5.0 day
Mycoplasma = assay: Antibacterial activity against Mycoplasma F3 assessed as inhibition of visible bacterial growth incubated for 24 hrs by CLSI based broth microdilution method; type: functional
Escherichia coli = assay: Antibacterial activity against Escherichia coli ATCC 25922 assessed as inhibition of visible bacterial growth incubated for 24 hrs by CLSI based broth microdilution method; type: functional
Streptococcus agalactiae = assay: Antibacterial activity against Streptococcus agalactiae assessed as inhibition of visible bacterial growth incubated for 24 hrs by CLSI based broth microdilution method; type: functional
Staphylococcus aureus [10] = assay: Antibacterial activity against methicillin-resistant Staphylococcus aureus ATCC 43300 assessed as post antibiotic effect at 8 times MIC measured after 1 hr; type: functional
Staphylococcus aureus [11] = assay: Antibacterial activity against methicillin-resistant Staphylococcus aureus ATCC 43300 assessed as post antibiotic effect at 4 times MIC measured after 1 hr; type: functional
Staphylococcus aureus [12] = assay: Antibacterial activity against methicillin resistant Staphylococcus aureus; type: functional
Staphylococcus aureus [13] = assay: Antibacterial activity against methicillin-resistant Staphylococcus aureus ATCC 43300 assessed as post antibiotic effect at 1 times MIC measured after 1 hr; type: functional
Staphylococcus aureus [14] = assay: as §1, with “lung” for “kidney”; type: functional; conditions: time 5 day
[15] = Cytotoxicity against human HEK293T cells assessed as survival rate incubated for 24 hrs by CCK-8 assay; type: toxicity, cell-based, HEK-293T
[16] = Cytotoxicity against human HEK293T cells assessed as survival rate at 200 micromol/L incubated for 24 hrs by CCK-8 assay relative to control; type: toxicity, cell-based, HEK-293T; conditions: dose 200 µmol/L, read-out: Survival
HepG2 [17] = assay: Cytotoxicity against human HepG2 cells assessed as survival rate at 200 micromol/L incubated for 24 hrs by CCK-8 assay relative to control; type: functional; conditions: HepG2, 24 h, dose 200 µmol/L, read-out: Survival
Staphylococcus aureus [18] = assay: as §1, with “liver” for “kidney”; type: functional; conditions: time 5 day
HepG2 [19] = assay: Cytotoxicity against human HepG2 cells assessed as survival rate incubated for 24 hrs by CCK-8 assay; type: functional, cell-based; conditions: HepG2, 24 h

C=C[C@]1(C)C[C@@H](OC(=O)CSCCN(CC)CC)[C@]2(C)[C@H](C)CC[C@]3(CCC(=O)[C@H]32)[C@@H](C)[C@@H]1O [TIAMULIN]
Activity (Staphylococcus aureus [1]): Active
Activity (Staphylococcus aureus [2]): Active
PAE (Staphylococcus aureus [3]): 0.91 h
MIC (Enterococcus faecalis): > 32 µg/mL
Ratio (Staphylococcus aureus [4]): 64
MIC (Staphylococcus aureus [5]): 0.25 µg/mL (≈ 0.506 µM)
Activity (Staphylococcus aureus [6]): inactive
MIC (Staphylococcus aureus [7]): 0.25 µg/mL (≈ 0.506 µM)
Activity (Staphylococcus aureus [8]): Active
Activity (Staphylococcus aureus [9]): Active
MIC (Mycoplasma): 0.008 µg/mL (≈ 0.0162 µM)
MIC (Escherichia coli): > 32 µg/mL
MIC (Streptococcus agalactiae): 0.125 µg/mL (≈ 0.253 µM)
PAE (Staphylococcus aureus [10]): 2.2 h
PAE (Staphylococcus aureus [11]): 1.54 h
MIC (Staphylococcus aureus [12]): 0.5 µg/mL (≈ 1.01 µM)
PAE (Staphylococcus aureus [13]): 0.42 h

C=C[C@]1(C)C[C@@H](OC(=O)CSC(C)(C)CNC(=O)[C@H](N)C(C)C)[C@]2(C)[C@H](C)CC[C@]3(CCC(=O)[C@H]32)[C@@H](C)[C@@H]1O [VALNEMULIN]
Activity (Staphylococcus aureus [14]): 0.98 log10CFU
Activity (Staphylococcus aureus [6]): inactive
IC50 at 24 h [15]: 52 µM
viability at 24 h, 200 µM [16]: 16%
viability at 200 µM (HepG2 [17]): 12%
Activity (Staphylococcus aureus [9]): inactive
Activity (Staphylococcus aureus [18]): 0.71 log10CFU
IC50 (HepG2 [19]): 102 µM
